Source: PMC9241695, “Selective Metal Chelation by a Thiosemicarbazone Derivative Interferes with Mitochondrial Respiration and Ribosome Biogenesis in Candida albicans” (Microbiology Spectrum, 2022)
In brackets after ≈: the same amount, converted by molar mass.

Assays:
Experiment in all cases: Antifungal susceptibility testing, microbroth dilution MIC
Assay type in all cases: cell-based
[1] = tested on: A. fumigatus AF293; details: Aspergillus fumigatus, AF293, 48 h, read-out: MIC (μg/mL) against fungi AF293
Text: (§1) Compound library. The thiosemicarbazone derivatives Triapine and COTI-2 were purchased from Med Chem Express (MCE). The other 87 thiosemicarbazones used in this study were previously synthesized by our collaborators (1, 2). Their structures are shown in Table 1 and Table S1 to help the reader clearly understand the relationship between structure and activity.
(§2) Strains and culture conditions. Clinically derived C. albicans isolates, including G5, F5, and Gu5, were kindly provided by Professor Joachim Morschhäuser of the University of Würzburg. Other clinical C. albicans isolates were kindly donated by Professor Qingguo Qi of Shandong University and Qianfoshan Hospital of Shandong Province Other Candida strains were obtained from Jinan Central Hospital.
(§3) The zap1 mutant and its complemented strain were kindly provided by Professor Aaron P. Mitchell of Carnegie Mellon University (3). The C. neoformans strains used in this study was kindly donated by Professor Guojian Liao of Southwest University and A. fumigatus strain used in this study was provided by Professor Ling Lu of Nanjing Normal University. […]
(§4) Antifungal susceptibility testing. To determine in vitro antifungal activities, the microbroth dilution method was carried out in RPMI1640 medium according to the guidelines of the Clinical and Laboratory Standards Institute (4, 5). The initial concentration in RPMI1640 medium was 1 × 10^3 CFU/mL for the C. albicans and C. neoformans suspensions but 1 × 10^4 CFU/mL for A. fumigatus. The range of final drug concentrations was 0.0156–64 μg/mL. The plates were incubated at35°C for 24 […]
(§5) h (for C. albicans, C. krusei, C. tropicalis, C. parapsilosis) or 48 h (for C. neoformans, A. fumigatus). The MIC was determined based on visible growth inhibition compared with the control. All experiments were performed in duplicate. […]

[2] = tested on: C. neoformans H99; details: Cryptococcus neoformans, H99, 48 h, read-out: MIC (μg/mL) against fungi H99
Text: as §1, §2, §3, §4, §5

[3] = tested on: C. albicans SC5314; details: Candida albicans, SC5314, 24 h, read-out: MIC (μg/mL) against fungi SC5314
Text: as §1, §2
as §3, with “University. Before in vitro and in vivo experiments, all C. albicans strains were grown on YPD agar plates. After culturing at 30°C for 24 h, colonies of each strain were cultured in liquid YPD medium at 30°C with continuous shaking” for “University.”
as §4, §5

C/C(=N\NC(=S)Nc1ccccc1Br)c1ccccn1 [Compound 19r]
MIC [1]: 8 µg/mL (≈ 22.9 µM)
MIC [2]: 8 µg/mL (≈ 22.9 µM)
MIC [3]: 1 µg/mL (≈ 2.86 µM)
